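Exposure lasted 48 hours, with cells grown in 96-well plates and compounds tested at five concentrations. At the GI50, growth is halved. TGI marks complete inhibition of growth.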
Columns and labels:
Test in all cases: NCI anticancer screen, dose series, 48 h
786-0 renal = tested on: 786-0 renal
ACHN renal = tested on: ACHN renal
MDA-MB-435 = tested on: MDA-MB-435
SNB-75 CNS = tested on: SNB-75 CNS
HS 578T breast = tested on: HS 578T breast
SNB-19 CNS = tested on: SNB-19 CNS
TK-10 renal = tested on: TK-10 renal
RPMI-8226 leukemia = tested on: RPMI-8226 leukemia
HL-60(TB) leukemia = tested on: HL-60(TB) leukemia
HOP-92 NSCLC = tested on: HOP-92 NSCLC

| Structure (SMILES) | TGI (786-0 renal) [µM] | TGI (ACHN renal) [µM] | TGI (MDA-MB-435) [µM] | TGI (SNB-75 CNS) [µM] | TGI (HS 578T breast) [µM] | TGI (SNB-19 CNS) [µM] | TGI (TK-10 renal) [µM] | TGI (RPMI-8226 leukemia) [µM] | TGI (HL-60(TB) leukemia) [µM] | GI50 (786-0 renal) [µM] | GI50 (ACHN renal) [µM] | GI50 (MDA-MB-435) [µM] | GI50 (SNB-75 CNS) [µM] | GI50 (HS 578T breast) [µM] | GI50 (SNB-19 CNS) [µM] | GI50 (TK-10 renal) [µM] | GI50 (RPMI-8226 leukemia) [µM] | GI50 (HL-60(TB) leukemia) [µM] | TGI (HOP-92 NSCLC) [µM] |
| --- | --- | --- | --- | --- | --- | --- | --- | --- | --- | --- | --- | --- | --- | --- | --- | --- | --- | --- | --- |
| O=C(CCCn1ccnc1[N+](=O)[O-])NCCn1cnc([N+](=O)[O-])c1 | > 100 | > 100 | > 100 | > 100 | > 100 | > 100 | > 100 | > 100 | > 100 |  |  |  |  |  |  |  |  |  |  |
| NC(=O)Nc1ccc2ncnc(Nc3ccc(Cl)cc3)c2c1 | 91.7 | 45.3 | 44.6 | 61 | 66.4 | > 100 | 23.4 | > 88.8 | 64.4 | 19.3 | 1.49 | 17.8 | 8 | 17 | 14.1 | 1.72 | 24.3 | 25.9 |  |
| CC1SC2=NC3=C(c4ccccc4C3=O)C(c3ccc(Br)cc3)N2C1=O (stereo not given) | > 100 | > 100 |  | 96.9 |  | > 100 | > 100 | > 100 | 62.8 |  |  |  |  |  |  |  |  |  | > 100 |
| CSc1nc(Cl)c(Br)c(Nc2c[nH]c(=O)[nH]c2=O)n1 | 27.1 | 35.5 | 83.7 | 42.7 |  | 44.9 | 40 | > 100 | 5.47 |  |  |  |  |  |  |  |  |  | 31.8 |
| O=C1c2c(c3c4ccccc4n4c3c3c2c2ccccc2n3C/C=C\C4)C(=O)N1Cc1ccccc1 | > 100 | > 100 |  | 68.9 |  | > 100 | > 100 | > 100 | > 100 |  |  |  |  |  |  |  |  |  |  |
| CSC(=S)N(C)NC(=O)c1cccc(C(=O)NN(C)C(=S)SC)n1 | 91.8 | > 100 |  | 98 |  | > 100 |  | > 100 | 48.3 |  |  |  |  |  |  |  |  |  | 55 |
| O=C(N/C(=C\c1ccc([N+](=O)[O-])cc1)c1nc2[nH]c(=S)[nH]c(=O)c2[nH]1)c1ccccc1 | > 100 | > 100 |  |  |  | > 100 | > 100 |  |  |  |  |  |  |  |  |  |  |  | > 100 |
| O=C(c1ccc(Cl)cc1)N(C(=S)N1CCN(c2ccccn2)CC1)c1ccccc1 | > 100 | > 100 |  | > 100 |  | > 100 | > 100 | > 100 | > 100 |  |  |  |  |  |  |  |  |  | > 100 |
| COc1ccc(CNc2nc3ccccc3nc2-c2cccs2)cc1OC | > 100 | > 100 |  |  |  | > 100 | > 100 | > 100 | > 100 |  |  |  |  |  |  |  |  |  | 51.3 |
| CC(C)O/C=C1\C(=O)C2(SCCS2)[C@H]2CCCC[C@@H]12 | > 100 | > 100 |  | > 100 |  | > 100 | > 100 | 81 | 53.4 |  |  |  |  |  |  |  |  |  |  |
| CCOC(=O)CNC(SC)=C(C#N)C#N | > 100 |  |  | > 100 |  | > 100 | > 100 | > 100 | > 100 |  |  |  |  |  |  |  |  |  | > 100 |
| Cc1cn(C2C=CC(=O)C(C)O2)c(=O)[nH]c1=O (stereo not given) | 32.2 | 31.3 |  | 29.1 |  | 43.9 | 28.5 | 47.9 | 38.1 |  |  |  |  |  |  |  |  |  | 29.5 |

From PubChem BioAssay (NCI)
